Literature values in patent US10449179B2, “Stable veterinary anthelmintic formulations” (DONAGHYS LIMITED, priority 2014, dated 2019).

Details: LD50 literature averages for three animal species, human equivalent, safety factor 10

## C[S+](C)[O-] [DMSO, dimethylsulfoxide]
  safety relative to N-methylpyrrolidone (acute oral LD50): approximately 5 times
